Columns and labels:
IRT1 [1] = target: T1, IRT1 (Arabidopsis thaliana, UniProt Q38856); assay: 55Fe uptake in fet3 fet4 yeast expressing IRT1; format: cell-based; conditions: for effect on the rate of iron uptake by IRT1: 10 μM metal, 10 times the radiolabeled iron, Fe(II) with 1 mM ascorbate
T1 construct: contain a single 1017 bp open reading frame capable of encoding a polypeptide of 339 amino acids; expressed in transfected cells; host or cells: S. cerevisiae fet3 fet4 strain DEY1453 carrying pIRT-1 (pFL61 library vector, phosphoglycerate kinase promoter)
T1 sequence (Q38856 9-347 limits assumed): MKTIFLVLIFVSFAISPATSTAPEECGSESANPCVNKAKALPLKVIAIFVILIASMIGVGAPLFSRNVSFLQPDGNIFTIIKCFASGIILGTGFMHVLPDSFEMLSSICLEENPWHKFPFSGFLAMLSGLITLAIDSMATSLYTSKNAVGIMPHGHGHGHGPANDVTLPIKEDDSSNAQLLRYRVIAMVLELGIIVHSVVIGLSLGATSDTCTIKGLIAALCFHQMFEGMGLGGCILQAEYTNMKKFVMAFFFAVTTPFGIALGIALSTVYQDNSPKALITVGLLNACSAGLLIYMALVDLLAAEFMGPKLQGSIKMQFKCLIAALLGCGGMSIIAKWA
Procedure: Iron uptake assays using ^55FeCl3 (Amersham, Arlington Heights, Ill.) were performed as described (Eide, D. et al. (1992) J. Biol. Chem. 267: 20774-20781) except that MGN (10 mM Mes/2% glucose/1 mM nitrilotriacetic acid, pH 6.1) was used for the assay buffer. Where noted, 1 mM sodium ascorbate was added to reduce Fe(III) to Fe(II). Stock solutions of the chloride salt of each metal (except for iron) were prepared in water at a concentration of 100 mM and diluted into MGN to a final concentration of 10 μM before addition of the cells. The ^56FeCl3 stock was 50 mM prepared in 0.1 M HCl. The statistical significance of differences in values relative to controls was determined using STATVIEW software (Abacus Concepts, Berkeley, Calif.). Data was subjected to one-way analysis of variance (ANOVA) followed by a Scheffe's test.
To determine if IRT1 encodes an iron transporter, ^55Fe uptake rates were examined in a fet3 fet4 strain expressing IRT1. Little or no uptake was detected at 0° C. for either IRT1-expressing or untransformed control cells (FIG. 2A). The fet3 fet4 mutant strain DEY1453 (circles) and DEY1453 transformed with pIRT-1 (squares) were grown to exponential phase in SD glucose and assayed for iron uptake with ^55Fe. (A) Time- and temperature-dependence of iron accumulation assayed in MGN with 1 mM ascorbate and 5 μM ^55FeCl3 assayed at 30° C. (open symbols) or 0° C. (solid symbols). The dashed line marked with open triangles represents the IRT1-dependent accumulation, i.e., the accumulation of iron by the untransformed strain at 30° C. subtracted from the accumulation of the pIRT-1-bearing strain at 30° C. […] The IRT1-dependent rate was ≈3-fold higher than the control uptake rate. No increased uptake was apparent in strains bearing either of two randomly selected clones from the library, indicating the dependence of these uptake effects on expression of IRT1. The iron uptake activity dependent on IRT1 expression was also concentration-dependent and saturable (FIG. 2B). The same strains as in A were assayed for iron uptake rates for 10 min over a range of concentrations. The dashed lines marked with open triangles represents the IRT1-dependent uptake rate, i.e., background uptake rate of the untransformed strain subtracted from the corresponding rate of the pIRT-1-bearing strains. (Inset) Eadie-Hofstee plot of the IRT1-dependent uptake data. Each point represents the mean of three experiments each performed in duplicate. The standard deviation within each experiment was less that 20% of the corresponding mean.
The experiments described above were conducted with iron supplied as Fe(II), i.e., in the presence of ascorbate, an agent capable of reducing Fe(III) to Fe(II). To determine if Fe(II) is the preferred substrate over Fe(III), assays were carried out in the absence of ascorbate where iron is supplied to the cells as Fe(III). […] The fet3 fet4 mutant strain DEY1453 and DEY1453 transformed with pIRT-1 were grown to exponential phase is SD glucose and assayed for iron uptake with 1 μM FeCl3 in MGN for 10 min. The values shown are the IRT1-dependent rates, i.e., the untransformed strain control values were subtracted from the DEY1453 pIRT-1 values and represent the means of four replicates. The asterisks indicate significant of differences from the control values (P<0.05). Assays were performed in the absence [Fe(III)] or presence [Fe(II)] of 1 mM ascorbate. […] Although yeast are capable of reducing Fe(III) to Fe(II) through the action of plasma membrane Fe(III) reductases, this rate of cell-mediated reduction is slower than reduction by ascorbate and therefore may be rate-limiting for IRT1-dependent uptake. To assess if metals other than iron are potential substrates for IRT1, several transition metals were tested for their ability to inhibit accumulation of iron in IRT1-expressing cells (FIG. 3B). Assays were conducted in the absence (−) or presence of 10 μM metal. […]

IRT1 [2] = target: T1, IRT1; assay: 55Fe uptake in fet3 fet4 yeast expressing IRT1; format: cell-based; conditions: metal at 100-fold excess

Row | SMILES | inhibition of IRT1-mediated Fe(II) uptake in yeast (summary statement) (IRT1 [1]) | effect on the rate of iron uptake by IRT1 (IRT1 [1]; 10 min) | inhibition of IRT1-dependent iron uptake (IRT1 [2]) | other results
1 | [Cl-].[Cl-].[Co+2] [Co] | inhibitors of IRT1-mediated Fe(II) uptake | no significant effect | inhibit IRT1-dependent iron uptake | –
2 | [Cl][Cu][Cl] [Cu] | – | no significant effect | – | –
3 | [Fe+2] [Fe(II)] | – | potent inhibitors | – | IRT1-dependent uptake rate relative to control uptake rate (IRT1 [1]; 5 μM 55FeCl3, 1 mM ascorbate, 30° C., first 10 min): ≈ 3 fold; Vmax of IRT1-mediated iron uptake (IRT1 [1]; iron supplied as Fe(II) (1 mM ascorbate), 10 min, DEY1453 pIRT-1 minus untransformed strain): 1.9±0.4 pmol per min per 10^6 cells; Km (IRT1 [1]; iron supplied as Fe(II) (1 mM ascorbate), 10 min, DEY1453 pIRT-1 minus untransformed strain, read-out: apparent Km of IRT1-mediated iron uptake): 6 ± 1 µM
4 | [Cl][Fe]([Cl])[Cl] [Fe(III)] | – | – | – | iron uptake rate in the absence of ascorbate relative to rate with ascorbate (IRT1 [1]; 1 μM FeCl3 in MGN, 10 min, iron supplied as Fe(III)): ≈ 10%
5 | [Cl][Mn][Cl] [Mn] | inhibitors of IRT1-mediated Fe(II) uptake | no significant effect | inhibit IRT1-dependent iron uptake | –
6 | [Cl][Ni][Cl] [Ni] | – | no significant effect | – | –
7 | [Zn+2] [zinc] | inhibitors of IRT1-mediated Fe(II) uptake | no significant effect | inhibit IRT1-dependent iron uptake | –

Reference: US6590140B1, “Metal-regulated transporters and uses therefor” (Trustees of Dartmouth College, priority 1996, dated 2003)
